Earlier results in CN110812364A, “半乳寡糖及其衍生物在作为SGLTs抑制剂中的应用” (Ocean University of China, priority 2019, dated 2020).

Target: T1, SGLT2 (Homo sapiens, UniProt P31639)
T1 sequence (P31639 1-672): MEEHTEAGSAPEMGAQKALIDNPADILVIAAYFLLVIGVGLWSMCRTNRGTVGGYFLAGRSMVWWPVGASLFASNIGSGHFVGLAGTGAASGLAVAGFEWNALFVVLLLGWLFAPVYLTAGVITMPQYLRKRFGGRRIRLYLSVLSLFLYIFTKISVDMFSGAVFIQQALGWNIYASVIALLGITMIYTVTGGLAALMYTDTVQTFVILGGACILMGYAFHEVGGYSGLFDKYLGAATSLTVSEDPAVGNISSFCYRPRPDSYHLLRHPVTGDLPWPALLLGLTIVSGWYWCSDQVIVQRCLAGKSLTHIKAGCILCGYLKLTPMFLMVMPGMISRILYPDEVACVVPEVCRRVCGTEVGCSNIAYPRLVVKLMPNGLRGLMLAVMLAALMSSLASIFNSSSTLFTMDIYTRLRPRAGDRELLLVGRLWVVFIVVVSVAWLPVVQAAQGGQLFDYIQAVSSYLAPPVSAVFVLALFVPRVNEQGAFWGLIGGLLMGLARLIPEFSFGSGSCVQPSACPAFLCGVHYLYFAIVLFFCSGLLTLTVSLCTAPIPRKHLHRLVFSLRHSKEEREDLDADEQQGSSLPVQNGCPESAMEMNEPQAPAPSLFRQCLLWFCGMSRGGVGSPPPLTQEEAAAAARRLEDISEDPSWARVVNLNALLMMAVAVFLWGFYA
Conditions: dual inhibitor of SGLT1 and SGLT2, background section

For `O=C(CCc1ccc(O)cc1)c1c(O)cc(O)cc1O[C@@H]1O[C@H](CO)[C@@H](O)[C@H](O)[C@H]1O` [根皮苷, 根皮苷(phloridzin)], the “selectivity for SGLT1 and SGLT2” value is listed as “选择性较差”.
